Data published in ChEMBL document CHEMBL2073743, “HMG-CoA reductase inhibitors (statins) characterized as direct inhibitors of P-glycoprotein” (Pharm Res, 2001).
pIC50: −log10 of the molar value.

Columns and labels:
[1] = target: T1, ATP-dependent translocase ABCB1 (Homo sapiens, UniProt P08183); assay: TP_TRANSPORTER: inhibition of Daunorubicin transport in 3T3-G185 cells; assay type: functional, cell-based
[2] = target: T1, ATP-dependent translocase ABCB1; assay: TP_TRANSPORTER: inhibition of Rhodamine 123 transport in 3T3-G185 cells; assay type: functional, cell-based

T1 sequence (P08183 whole entry): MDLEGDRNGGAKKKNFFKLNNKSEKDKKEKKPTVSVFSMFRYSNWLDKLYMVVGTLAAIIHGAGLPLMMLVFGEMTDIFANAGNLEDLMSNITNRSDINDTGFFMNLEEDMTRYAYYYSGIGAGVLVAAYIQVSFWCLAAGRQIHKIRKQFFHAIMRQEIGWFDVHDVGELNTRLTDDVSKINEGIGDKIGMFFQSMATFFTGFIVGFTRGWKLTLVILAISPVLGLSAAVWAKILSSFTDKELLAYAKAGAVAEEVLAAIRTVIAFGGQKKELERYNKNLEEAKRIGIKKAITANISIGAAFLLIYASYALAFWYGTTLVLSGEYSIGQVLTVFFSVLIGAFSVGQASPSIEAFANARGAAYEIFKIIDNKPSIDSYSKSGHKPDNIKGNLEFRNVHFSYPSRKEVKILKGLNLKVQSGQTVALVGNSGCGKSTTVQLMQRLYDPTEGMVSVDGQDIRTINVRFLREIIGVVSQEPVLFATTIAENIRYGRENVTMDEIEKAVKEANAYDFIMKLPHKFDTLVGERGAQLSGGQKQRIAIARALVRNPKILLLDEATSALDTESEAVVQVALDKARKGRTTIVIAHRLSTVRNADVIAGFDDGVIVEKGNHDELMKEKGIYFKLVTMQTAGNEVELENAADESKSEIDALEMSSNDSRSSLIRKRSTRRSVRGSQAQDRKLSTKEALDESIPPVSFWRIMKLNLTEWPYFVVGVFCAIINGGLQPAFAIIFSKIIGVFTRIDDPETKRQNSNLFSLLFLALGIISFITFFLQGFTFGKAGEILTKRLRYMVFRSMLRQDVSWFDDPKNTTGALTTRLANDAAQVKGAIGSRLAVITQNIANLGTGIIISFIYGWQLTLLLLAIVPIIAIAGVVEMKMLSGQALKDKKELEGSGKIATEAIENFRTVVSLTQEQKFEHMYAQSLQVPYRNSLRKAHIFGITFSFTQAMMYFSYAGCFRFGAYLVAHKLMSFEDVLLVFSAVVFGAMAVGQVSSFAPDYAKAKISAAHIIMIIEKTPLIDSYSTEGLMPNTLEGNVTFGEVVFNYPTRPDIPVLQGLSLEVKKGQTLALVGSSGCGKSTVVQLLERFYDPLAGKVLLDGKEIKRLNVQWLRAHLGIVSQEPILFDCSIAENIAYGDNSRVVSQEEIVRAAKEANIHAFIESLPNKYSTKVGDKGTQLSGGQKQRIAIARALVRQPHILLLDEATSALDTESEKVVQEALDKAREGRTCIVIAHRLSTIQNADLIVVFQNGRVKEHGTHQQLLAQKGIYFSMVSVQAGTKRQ

- pIC50 [1]: 3.57
- pIC50 [2]: 3.51
SMILES: CC(C)c1c(C(=O)Nc2ccccc2)c(-c2ccccc2)c(-c2ccc(F)cc2)n1CC[C@@H](O)C[C@@H](O)CC(=O)O [ATORVASTATIN]
